Values joined by “and” are separate entries in the source; they are usually repeats but may differ in a detail not shown here. Equal values may be shown once. Read-outs that look alike come from different tables or passages of the source.
Tests used:
[1] = tested on: Rat2 fibroblasts stably transformed with v-Src/Hu c-Src fusion gene; assay: Anchorage independent Src-transformed fibroblast proliferation assay; format: cell-based, rat
Experimental: Anchorage Independent Src-Transformed Fibroblast Proliferation Assay Rat2 fibroblasts stably transformed with a plasmid containing a CMV promotor controlled v-Src/Hu c-Src fusion gene in which the catalytic domain of human c-Src was inserted in place of the v-Src catalytic domain in the v-Src gene are used for the measurement of src dependent suspension growth. […] Multiple entries for a given compound indicate that it was tested multiple times.

[2] = molecular target: T1, Rat2 fibroblasts stably transformed with v-Src/Hu Lck fusion gene (Homo sapiens, UniProt P06239, cells depend on it, form not given); assay: Anchorage independent Lck-transformed fibroblast proliferation assay; format: cell-based, rat; details: Table 3; read-out: Lck Cells IC50
T1 construct: Candidates are e.g. Schmidt-Ruppin A (P00524) or Prague C (P00526); The human Lck catalytic domain stands in place of the v-Src catalytic domain
Method in brief: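 Rat2 fibroblasts expressing a CMV-driven v-Src/human Lck catalytic-domain fusion grown in suspension on ultra-low attachment plates, 10,000 cells/well. Compound added Day 2 as two-fold dilutions from 10 to 0.009 micromolar; MTS added Day 5, absorbance read at 490 nm. IC50 derived from blank-corrected % of no-compound control.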

[3] = molecular target: T2, Recombinant human Src enzyme (Homo sapiens, UniProt P12931); assay: Src kinase assay (LANCE FRET); format: biochemical; details: Table 3; 100 μM ATP, biotinylated Cdk1 peptide substrate
T2 construct: purchased PanVera P3044
Experimental: Recombinant human Src enzyme was obtained from PanVera (P3044). […] Homogeneous fluorescence resonance energy transfer kinase assays were performed using the europium/APC detection format (LANCE, Perkin Elmer). Src enzyme (10 ng) was mixed with biotinylated peptide (final concentration 2 μM), 50 mM Hepes (pH 7.5), 10 mM MgCl2, 20 μg/ml BSA, 0.001% Brij-35 (sigma), 100 μM ATP, 1% DMSO. The kinase reaction was incubated for 70 min at 37° C. The reaction was stopped with EDTA at a final concentration of 30 mM EDTA/25 mM Hepes (pH 7.5)/10 μg/ml BSA. The mixture was combined with Eu-labeled anti-phosphotyrosine antibody PT66 (Perkin Elmer, AD0068) and Streptavidin Surelight-APC (Perkin Elmer, CR130-100) in 50 mM Hepes (pH 7.5)/20 μg/ml BSA, and incubated for 30 min according to manufacturer's specifications. […] Multiple entries for a given compound indicate that it was tested multiple times.

LoVo cells = assay: Cell based screen for inhibitors of Raf and/or Mek kinase, LoVo; parameters: species or system human; details: Homo sapiens, LoVo, 96 h, Table 4; four days incubation, SRB
Experimental: (§1) Cell Based Screen for Inhibitors of Raf and/or Mek Kinase.
(§2) Cell Lines: Human tumor cell lines LoVo which are known to be growth inhibited by low nM concentrations of a reference standard inhibitor of Ras and human adenocarcinoma cell line CaCo-2, which is known to be growth resistant to the same reference compound.
(§3) Cell Media: RPMI 1640 with 10% Fetal Bovine Serum supplemented with L-glutamine and Pennicilin/Streptomycin. • Compounds: Supplied usually as a 10 mM stock in 100% DMSO. • Normal Saline: 150 mM NaCl • Trichloroacetic Acid (TCA): 50% (w/v) in water • Sulforhodamine B (SRB): 0.4% (w/v) in 1% Acetic Acid • Tris Base: 10 mM in water Methods
(§4) Cells are plated at 2000 cells per well for cell line LoVo, 1,750 cells for cell line BXPC3, 1,000 cells for cell line WM266–4 and 1500 cells for cell line CaCo-2 in 96 well plates. Cells are plated in media (200 μl) and allowed to adhere overnight at 37° C. At 24 hours post plating, compounds are added directly at a volume of 0.5 μl. For the qualitative screen (compounds screened at 25 μM) compound is added directly to cells. For the quantitative screen, compound is first diluted in DMSO to generate concentrations of compound or reference standard of: 1, 5, 10 and 25 μM. It is advisable to make the dilutions in an identical 96 well plate so that compounds can be added using a multichannel micropipettor set at 0.5 μl. The cells are then incubated for four days after which the media is removed using a 12 well manifold by first tipping the plate forward at a 45 degree angle and then inserting the manifold in an upright orientation to prevent the tips of the manifold from disturbing cells at the bottom of the plate. 200 μl of normal saline is then added to each well using an 8 well multichannel pipettor, followed by the careful addition of 50 μl of 50% TCA. The plates are then incubated for 2 hours at 4° C., after which the supernatant is removed using the same technique as above and the plated washed twice with 200 μl water. The plates are then air dried and 50 μl of SRB stock solution is carefully added so that the entire bottom of each well is covered. This again can be used using an 8 well multichannel pipettor. The SRB is incubated with fixed cells for 15 minutes at room temperature after which the SRB is removed with the manifold as described above and the plates washed twice with 350 μl of 1% acetic acid per well each time. The plates are then air dried after which the bound SRB is released from protein by the addition of 200 μl of Tris base. Resolubilizing the SRB is aided by placing the plates on a rotator for 15–30 minutes. The absorbance of each well is determined at 550 or 562 nm using a microtiter plate reader.
(§5) Each compound or dilution thereof is performed in triplicate. Outliers are identified by visual inspection of the data. Each plate should have a “0” control (vehicle only).
(§6) Quantitative Assay: A standard curve is constructed by plotting the concentration of compound against the average absorbance calculated at that concentration. A curve is plotted and the concentration at which the curve passes through the 50% the absorbance mark seen in the “0” control well is the IC50 calculated for that compound. Multiple entries for a given compound indicate that it was tested multiple times.

BXPC3 cells = assay: Cell based screen for inhibitors of Raf and/or Mek kinase, BXPC3; details: Homo sapiens, BXPC-3, 96 h; Table 4; four days incubation, SRB
Experimental: as §1, §2, §3, §4, §5, §6

[4] = Rattus norvegicus, Rat2, Table 3, read-out: Src Cells IC50 μM or % inhib at 10 μM (IC50 values)
[5] = Table 3, read-out: Src Cells IC50 μM or % inhib at 10 μM (IC50 values)
[6] = Rattus norvegicus, Rat2, read-out: Src Cells IC50 μM or % inhib at 10 μM (IC50 values), Table 3
[7] = read-out: Src Cells IC50 μM or % inhib at 10 μM (IC50 values), Table 3

T2 sequence (P12931 whole entry): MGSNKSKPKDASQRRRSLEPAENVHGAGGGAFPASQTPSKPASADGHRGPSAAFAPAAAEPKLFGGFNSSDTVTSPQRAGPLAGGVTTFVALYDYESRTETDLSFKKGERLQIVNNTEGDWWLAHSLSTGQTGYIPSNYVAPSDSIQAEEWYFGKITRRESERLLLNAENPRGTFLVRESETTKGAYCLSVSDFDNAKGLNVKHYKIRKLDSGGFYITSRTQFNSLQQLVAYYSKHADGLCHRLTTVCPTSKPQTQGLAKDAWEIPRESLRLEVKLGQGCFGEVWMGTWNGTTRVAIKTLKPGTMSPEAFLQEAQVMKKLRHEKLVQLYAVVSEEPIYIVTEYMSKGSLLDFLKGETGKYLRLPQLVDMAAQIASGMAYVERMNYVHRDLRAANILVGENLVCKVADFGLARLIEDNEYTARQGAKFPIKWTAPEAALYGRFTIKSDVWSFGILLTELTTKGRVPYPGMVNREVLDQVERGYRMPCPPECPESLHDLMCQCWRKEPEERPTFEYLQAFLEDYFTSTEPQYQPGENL
T1 sequence (P06239 whole entry, change not shown, the tested form may be a part): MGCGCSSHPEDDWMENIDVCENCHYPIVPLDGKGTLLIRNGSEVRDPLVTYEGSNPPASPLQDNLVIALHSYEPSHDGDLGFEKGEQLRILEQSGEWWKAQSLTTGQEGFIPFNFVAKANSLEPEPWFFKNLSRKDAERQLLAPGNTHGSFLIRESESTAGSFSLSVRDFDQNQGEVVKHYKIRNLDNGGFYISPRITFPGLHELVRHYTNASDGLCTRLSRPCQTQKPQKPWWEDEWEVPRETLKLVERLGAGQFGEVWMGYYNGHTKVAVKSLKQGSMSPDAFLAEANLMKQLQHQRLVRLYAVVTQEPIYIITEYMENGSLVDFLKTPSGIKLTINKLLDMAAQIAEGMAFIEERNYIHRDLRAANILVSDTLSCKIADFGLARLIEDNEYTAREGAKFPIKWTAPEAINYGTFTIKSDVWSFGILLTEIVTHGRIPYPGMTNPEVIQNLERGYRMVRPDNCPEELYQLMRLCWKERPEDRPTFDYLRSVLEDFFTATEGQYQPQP

COc1cc(Nc2c(C#N)cnc3cc(-c4ccc(CN5CC[S+]([O-])CC5)cc4)sc23)c(Cl)cc1Cl [Example 105, 7-[(2,4-dichloro-5-methoxyphenyl)amino]-2-{4-[(1-oxidothiomorpholin-4-yl)methyl]phenyl}thieno[3,2-b]pyridine-6-carbonitrile]
IC50 [1, 4]: 0.473 µM | IC50 [1, 5]: 0.55 µM | GI50 [2]: 222 nM and 235 nM | IC50 [3]: 8.5 nM and 7 nM | melting point: 242 to 245 °C

COc1cc(Nc2c(C#N)cnc3cc(-c4ccc(CNCCCO)cc4)sc23)c(Cl)cc1Cl [Example 107, 7-[(2,4-dichloro-5-methoxyphenyl)amino]-2-(4-{[(3-hydroxypropyl)amino]methyl}phenyl)thieno[3,2-b]pyridine-6-carbonitrile]
IC50 [1, 4]: 0.531 µM | IC50 [1, 5]: 0.543 µM | GI50 [2]: 63 nM and 65 nM | IC50 [3]: 9 nM and 11 nM | melting point: 141 to 143 °C

COc1cc(Nc2c(C#N)cnc3cc(-c4ccc(CN5CCOCC5)cn4)sc23)c(Cl)cc1Cl [Example 108, 7-[(2,4-dichloro-5-methoxyphenyl)amino]-2-[5-(morpholin-4-ylmethyl)pyridin-2-I]thieno[3,2-b]pyridine-6-carbonitrile]
IC50 [1, 4]: 0.474 µM | IC50 [1, 5]: 0.319 µM | GI50 [2]: 201 nM and 240 nM | IC50 [3]: 13 nM and 12 nM | melting point: 227 to 229 °C

COc1cc(Nc2c(C#N)cnc3cc(-c4ccc(C(=O)N5CCN(C)CC5)cc4)sc23)c(Cl)cc1Cl [Example 117, 7-[(2,4-dichloro-5-methoxyphenyl)amino]-2-{4-[(4-methylpiperazin-1-yl)carbonyl]phenyl}thieno[3,2-b]pyridine-6-carbonitrile]
IC50 [1, 6]: 0.388 µM | IC50 [1, 7]: 0.274 µM | GI50 [2]: 129 nM and 171 nM | IC50 [3]: 15 nM and 11 nM | melting point: 240 to 243 °C (dec.)

CCN(CC)CC#Cc1cc2ncc(C#N)c(Nc3ccc(Sc4nccn4C)c(Cl)c3)c2s1 [Example 118, 7-({3-chloro-4-[(1-methyl-1H-imidazol-2-yl)thio]phenyl}amino)-2-[3-(diethylamino)prop-1-ynyl]thieno[3,2-b]pyridine-6-carbonitrile]
IC50 (LoVo cells): 73 nM | IC50 (BXPC3 cells): 71 nM | melting point: 190 to 194 °C

CCOc1cc(Nc2c(C#N)cnc3cc(-c4ccc(CN5CCN(C)CC5)cc4)sc23)c(Cl)cc1Cl [Example 123, 7-[(2,4-dichloro-5-ethoxyphenyl)amino]-2-{4-[(4-methylpiperazin-1-yl)methyl]phenyl}thieno[3,2-b]pyridine-6-carbonitrile]
IC50 [1, 6]: > 10 µM | GI50 [2]: 3230 nM and 4690 nM | IC50 [3]: 943 nM and 1020 nM | melting point: 227 to 229 °C

COc1cc(Nc2c(C#N)cnc3cc(-c4ccc(CCN(C)C)cc4)sc23)c(Cl)cc1Cl [Example 134, 7-[(2,4-dichloro-5-methoxyphenyl)amino]-2-{4-[2-(dimethylamino)ethyl]phenyl}thieno[3,2-b]pyridine-6-carbonitrile]
IC50 [1, 6]: 0.505 µM | IC50 [1, 7]: 0.337 µM | GI50 [2]: 130 nM and 170 nM | IC50 [3]: 7.6 nM and 10 nM | melting point: 196 to 197 °C

COc1cc(Nc2c(C#N)cnc3c(-c4ccc(CN(C)C)cc4)csc23)c(Cl)cc1Cl [Example 141, 7-[(2,4-Dichloro-5-methoxyphenyl)amino]-3-{4-[(dimethylamino)methyl]phenyl}thieno[3,2-b]pyridine-6-carbonitrile]
IC50 [1, 4]: 4.52 µM | IC50 [1, 5]: 4.11 µM | GI50 [2]: 3180 nM and 4240 nM | IC50 [3]: 4350 nM and 5040 nM | melting point: 201 to 202 °C

COc1cc(Nc2c(C#N)cnc3c(-c4ccc(CN5CCN(C)CC5)cc4)csc23)c(Cl)cc1Cl [Example 142, 7-[(2,4-dichloro-5-methoxyphenyl)amino]-3-{4-[(4-methylpiperazin-1-yl)methyl]phenyl}thieno[3,2-b]pyridine-6-carbonitrile]
IC50 [1, 4]: 3.25 µM | IC50 [1, 5]: 1.99 µM | GI50 [2]: 3540 nM and 4350 nM | IC50 [3]: > 10000 nM | melting point: 197 to 198 °C

COc1cc(Nc2c(C#N)cnc3c(-c4ccc(CN5CCOCC5)cc4)csc23)c(Cl)cc1Cl [Example 143, 7-[(2,4-dichloro-5-methoxyphenyl)amino]-3-[4-(morpholin-4-ylmethyl)phenyl]thieno[3,2-b]pyridine-6-carbonitrile]
inhibition at 10 µM ([1]; Rattus norvegicus, Rat2, Table 3, at 10 μM, read-out: Src Cells IC50 μM or % inhib at 10 μM (% values)): 61% | Src Cells IC50 μM or % inhib at 10 μM (% values) ([1]; Table 3, at 10 μM): 45% | GI50 [2]: > 10000 nM | IC50 [3]: > 10000 nM | melting point: 184 to 185 °C

— patent US7276519B2, “Thieno[3,2-b]pyridine-6-carbonitriles and thieno[2,3-b]pyridine-5-carbonitriles as protein kinase inhibitors” (Wyeth, priority 2002, dated 2007)
